# Source: the NIST ThermoML archive (doi:10.1016/j.jct.2005.04.010)
# ± gives the expanded uncertainty stated by the source.
# Assays:
# [1] = 101.33 kPa, Liquid
# [2] = wn = mass fraction of the nth substance listed; details: 101 kPa, Liquid, w1 = 0.5
compound,measurement,setting,value
CCCC[N+]1(C)CCCC1.O=S(=O)([N-]S(=O)(=O)C(F)(F)F)C(F)(F)F,mass density,[1]; 298.15 K,1394 ± 5 kg/m3
same,mass density,[1]; 303.15 K,1390 ± 5 kg/m3
same,mass density,[1]; 308.15 K,1388 ± 5 kg/m3
same,mass density,[1]; 313.15 K,1386 ± 5 kg/m3
same,mass density,[1]; 318.15 K,1383 ± 5 kg/m3
same,mass density,[1]; 323.15 K,1381 ± 5 kg/m3
same,mass density,[1]; 328.15 K,1379 ± 5 kg/m3
same,mass density,[1]; 333.15 K,1377 ± 5 kg/m3
same,mass density,[1]; 338.15 K,1373 ± 5 kg/m3
same,mass density,[1]; 343.15 K,1370 ± 5 kg/m3
same,mass density,[1]; 348.15 K,1366 ± 5 kg/m3
CCn1cc[n+](C)c1.O=S(=O)([N-]S(=O)(=O)C(F)(F)F)C(F)(F)F + CCCC[n+]1ccn(C)c1.O=S(=O)([N-]S(=O)(=O)C(F)(F)F)C(F)(F)F,mass density,[2]; 293.15 K,1483 ± 6 kg/m3
same,mass density,[2]; 298.15 K,1479 ± 6 kg/m3
same,mass density,[2]; 303.15 K,1474 ± 6 kg/m3
same,mass density,[2]; 308.15 K,1469 ± 6 kg/m3
same,mass density,[2]; 313.15 K,1464 ± 6 kg/m3
same,mass density,[2]; 318.15 K,1459 ± 6 kg/m3
same,mass density,[2]; 323.15 K,1454 ± 6 kg/m3
same,mass density,[2]; 328.15 K,1449 ± 6 kg/m3
same,mass density,[2]; 333.15 K,1445 ± 6 kg/m3
same,mass density,[2]; 338.15 K,1440 ± 6 kg/m3
same,mass density,[2]; 343.15 K,1435 ± 6 kg/m3
same,mass density,[2]; 348.15 K,1430 ± 6 kg/m3
same,mass density,[2]; 353.15 K,1425 ± 6 kg/m3
same,mass density,[2]; 358.15 K,1421 ± 6 kg/m3
